In patent US9533963B2, “Alkylamidothiazoles, cosmetic or dermatological preparations containing said alkylamidothiazoles, and use thereof to combat or prevent undesired pigmentation of the skin” (BEIERSDORF AG, priority 2011, dated 2017):

Target: T1, human tyrosinase (Homo sapiens, UniProt P14679)
T1 sequence (P14679 19-529): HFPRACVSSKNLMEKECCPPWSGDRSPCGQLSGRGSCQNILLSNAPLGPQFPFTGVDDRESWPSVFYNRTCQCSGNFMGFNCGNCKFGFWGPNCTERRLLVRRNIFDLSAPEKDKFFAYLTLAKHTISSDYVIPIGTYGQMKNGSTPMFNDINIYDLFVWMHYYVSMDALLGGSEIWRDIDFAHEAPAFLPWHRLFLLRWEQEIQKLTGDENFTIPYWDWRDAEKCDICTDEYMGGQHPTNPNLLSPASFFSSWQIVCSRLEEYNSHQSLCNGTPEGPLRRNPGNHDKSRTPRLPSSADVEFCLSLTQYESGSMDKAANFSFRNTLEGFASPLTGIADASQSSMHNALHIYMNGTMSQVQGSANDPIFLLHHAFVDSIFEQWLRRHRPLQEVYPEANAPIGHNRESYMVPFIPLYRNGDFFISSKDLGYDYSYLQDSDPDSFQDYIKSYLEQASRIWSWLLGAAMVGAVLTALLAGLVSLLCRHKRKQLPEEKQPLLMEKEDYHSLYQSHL
Experiment: Enzyme test: conversion of L-DOPA to L-dopaquinone by a human tyrosinase (MBTH, absorption at 490 nm)
Assay type: biochemical
Conditions: concentration 10 μg/ml, inhibition of the tyrosinase activity; for inhibition at 10 µg/mL: read-out: Inhibition (% of the control)
Procedure: Method Description of the Effectiveness Investigations:
In this literature-known method (Winder, A. J. and Harris, H., New assays for the tyrosine hydroxylase and dopa oxidase activities of tyrosinase. Eur. J. Biochem. (1991), 198, 317-26), the reaction product L-dopaquinone is reacted with MBTH (3-methyl-2-benzothiazoline hydrazone) to give a pink-colored substance, the increase of which is measured over the time by absorption at 490 nm. […] It can be concluded from this that the substances according to the invention are extremely effective pigmentation-inhibiting substances.

Row | SMILES | inhibition at 10 µg/mL | Inhibition (% of the control)
1 | CC(C)C(=O)Nc1nc(-c2ccc(O)cc2O)cs1 [N-(4-(2,4-Dihydroxyphenyl)thiazol-2-yl)isobutyramide] | 94% | –
2 | OCc1ccc(Nc2nc(-c3ccc(O)cc3O)cs2)cc1 [4-(2-((4-(Hydroxymethyl)phenyl)amino)thiazol-4-yl)benzene-1,3-diol, reference compound] | 93% | –
3 | CCCCCCNc1nc(-c2ccc(O)cc2O)cs1 [4-(2-(Hexylamino)thiazol-4-yl)benzene-1,3-diol, reference compound] | 41% | –
4 | CC(C)(C)C(=O)Nc1nc(-c2ccc(O)cc2O)cs1 [N-(4-(2,4-Dihydroxyphenyl)thiazol-2-yl)pivalamide] | 96% | –
5 | CCCC(=O)Nc1nc(-c2ccc(O)cc2O)cs1 [N-(4-(2,4-Dihydroxyphenyl)thiazol-2-yl)butyramide] | 95% | –
6 | CC(C)Nc1nc(-c2ccc(O)cc2O)cs1 [4-(2-Isopropylamino)thiazol-4-yl)benzene-1,3-diol, reference compound] | – | 91%

Second part, led by results:

Row | inhibition at 10 µg/mL | SMILES | Inhibition (% of the control)
7 | 62% | CC(C)(C)Nc1nc(-c2ccc(O)cc2O)cs1 [4-(2-(tert-Butylamino)thiazol-4-yl)benzene-1,3-diol, reference compound] | –
8 | 88% | CCCNc1nc(-c2ccc(O)cc2O)cs1 [4-(2-(Propylamino)thiazol-4-yl)benzene-1,3-diol, reference compound] | –
9 | 88% | O=C(Cc1ccc(CO)cc1)Nc1nc(-c2ccc(O)cc2O)cs1 [N-(4-(2,4-Dihydroxyphenyl)thiazol-2-yl)-2-(4-(hydroxymethyl)phenyl)acetamide] | –
10 | 94% | O=C(Nc1nc(-c2ccc(O)cc2O)cs1)C1CCC(CO)CC1 (stereo not shown) [N-(4-(2,4-Dihydroxyphenyl)thiazol-2-yl)-4-(hydroxymethyl)cyclohexanecarboxamide] | –
11 | 92% | O=C(Nc1nc(-c2ccc(O)cc2O)cs1)C1CCCCC1 [N-(4-(2,4-Dihydroxyphenyl)thiazol-2-yl)cyclohexanecarboxamide] | –
12 | 66% | CCCCCCC(=O)Nc1nc(-c2ccc(O)cc2O)cs1 [N-(4-(2,4-Dihydroxyphenyl)thiazol-2-yl)heptanamide] | –
13 | 70% | Oc1ccc(-c2csc(NC3CCCCC3)n2)c(O)c1 [4-(2-(Cyclohexylamino)thiazol-4-yl)benzene-1,3-diol, reference compound] | –
